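Step 1: Grow cells in 96-well plates. Step 2: Expose to compound for 48 hours at 5 concentrations. Step 3: Interpolate endpoints linearly; if unreached, use highest concentration. GI50 = concentration required for 50% inhibition of growth. TGI denotes the concentration required for complete inhibition of growth.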
Experiments:
Test in all cases: NCI-60 cell line screen, 48 h
NCI-H522 lung = tested on: NCI-H522 lung
SF-268 CNS = tested on: SF-268 CNS
IGROV1 ovarian = tested on: IGROV1 ovarian
K-562 leukemia = tested on: K-562 leukemia
DMS 114 small cell lung = tested on: DMS 114 small cell lung
SF-295 CNS = tested on: SF-295 CNS
SNB-19 CNS = tested on: SNB-19 CNS
HCC-2998 colon = tested on: HCC-2998 colon
NCI-H226 lung = tested on: NCI-H226 lung
KM12 colon = tested on: KM12 colon
M19-MEL melanoma = tested on: M19-MEL melanoma
XF 498 CNS = tested on: XF 498 CNS
CCRF-CEM leukemia = tested on: CCRF-CEM leukemia
UACC-257 melanoma = tested on: UACC-257 melanoma
HOP-62 NSCLC = tested on: HOP-62 NSCLC
M14 melanoma = tested on: M14 melanoma
DMS 273 small cell lung = tested on: DMS 273 small cell lung
NCI-H23 lung = tested on: NCI-H23 lung
TK-10 renal = tested on: TK-10 renal
LOX IMVI melanoma = tested on: LOX IMVI melanoma
ACHN renal = tested on: ACHN renal
COLO 205 colon = tested on: COLO 205 colon
MALME-3M melanoma = tested on: MALME-3M melanoma
SF-539 CNS = tested on: SF-539 CNS
786-0 renal = tested on: 786-0 renal
HT29 colon = tested on: HT29 colon
RPMI-8226 leukemia = tested on: RPMI-8226 leukemia
SR leukemia = tested on: SR leukemia
MOLT-4 leukemia = tested on: MOLT-4 leukemia
U251 CNS = tested on: U251 CNS
SK-OV-3 ovarian = tested on: SK-OV-3 ovarian
UO-31 renal = tested on: UO-31 renal
EKVX NSCLC = tested on: EKVX NSCLC
HL-60(TB) leukemia = tested on: HL-60(TB) leukemia
SW-620 colon = tested on: SW-620 colon
OVCAR-8 ovarian = tested on: OVCAR-8 ovarian
LXFL 529 NSCLC = tested on: LXFL 529 NSCLC
KM20L2 colon = tested on: KM20L2 colon
SK-MEL-28 melanoma = tested on: SK-MEL-28 melanoma
SK-MEL-5 melanoma = tested on: SK-MEL-5 melanoma
OVCAR-3 ovarian = tested on: OVCAR-3 ovarian
HCT-15 colon = tested on: HCT-15 colon
NCI-H460 lung = tested on: NCI-H460 lung
A549 NSCLC = tested on: A549 NSCLC
HCT-116 colon = tested on: HCT-116 colon
HOP-18 NSCLC = tested on: HOP-18 NSCLC
HOP-92 NSCLC = tested on: HOP-92 NSCLC
OVCAR-4 ovarian = tested on: OVCAR-4 ovarian
OVCAR-5 ovarian = tested on: OVCAR-5 ovarian
SNB-78 CNS = tested on: SNB-78 CNS
DLD-1 colon = tested on: DLD-1 colon
SNB-75 CNS = tested on: SNB-75 CNS
SK-MEL-2 melanoma = tested on: SK-MEL-2 melanoma
SN12C renal = tested on: SN12C renal

Oc1cccc2c1NC1=C(CCC/C1=C\c1ccccc1)C2
TGI (NCI-H522 lung): 83.5 µM | TGI (SF-268 CNS): > 100 µM | TGI (IGROV1 ovarian): > 100 µM | TGI (K-562 leukemia): > 100 µM | TGI (DMS 114 small cell lung): > 100 µM | TGI (SF-295 CNS): > 100 µM | TGI (SNB-19 CNS): > 100 µM | TGI (HCC-2998 colon): > 100 µM | TGI (NCI-H226 lung): > 100 µM | TGI (KM12 colon): > 100 µM | TGI (M19-MEL melanoma): > 100 µM | TGI (XF 498 CNS): > 100 µM | TGI (CCRF-CEM leukemia): > 100 µM | TGI (UACC-257 melanoma): > 100 µM | TGI (HOP-62 NSCLC): > 100 µM | TGI (M14 melanoma): > 100 µM | TGI (DMS 273 small cell lung): > 100 µM | TGI (NCI-H23 lung): > 100 µM | TGI (TK-10 renal): > 100 µM | TGI (LOX IMVI melanoma): > 100 µM | TGI (ACHN renal): > 100 µM | TGI (COLO 205 colon): > 100 µM | TGI (MALME-3M melanoma): > 100 µM | TGI (SF-539 CNS): > 100 µM | TGI (786-0 renal): > 100 µM | TGI (HT29 colon): > 100 µM | TGI (RPMI-8226 leukemia): > 100 µM | TGI (SR leukemia): > 100 µM | TGI (MOLT-4 leukemia): > 100 µM | TGI (U251 CNS): > 100 µM | TGI (SK-OV-3 ovarian): > 100 µM | TGI (UO-31 renal): > 100 µM | TGI (EKVX NSCLC): > 100 µM | TGI (HL-60(TB) leukemia): > 100 µM | TGI (SW-620 colon): > 100 µM | TGI (OVCAR-8 ovarian): > 100 µM | TGI (LXFL 529 NSCLC): > 100 µM | TGI (KM20L2 colon): > 100 µM | TGI (SK-MEL-28 melanoma): > 100 µM | TGI (SK-MEL-5 melanoma): > 100 µM | TGI (OVCAR-3 ovarian): > 100 µM | TGI (HCT-15 colon): > 100 µM | TGI (NCI-H460 lung): > 100 µM | TGI (A549 NSCLC): > 100 µM | TGI (HCT-116 colon): > 100 µM

O=S(=O)([O-])[O-].[OH3+].[OH3+].[OH3+].[Ru+2].c1ccccc1
GI50 (SF-268 CNS): > 100 µM | TGI (SF-268 CNS): > 100 µM | GI50 (IGROV1 ovarian): > 100 µM | TGI (IGROV1 ovarian): > 100 µM | GI50 (K-562 leukemia): > 100 µM | TGI (K-562 leukemia): > 100 µM | GI50 (DMS 114 small cell lung): > 100 µM | TGI (DMS 114 small cell lung): > 100 µM | GI50 (SF-295 CNS): > 100 µM | TGI (SF-295 CNS): > 100 µM | GI50 (SNB-19 CNS): > 100 µM | TGI (SNB-19 CNS): > 100 µM | GI50 (HCC-2998 colon): > 100 µM | TGI (HCC-2998 colon): > 100 µM | GI50 (NCI-H226 lung): > 100 µM | TGI (NCI-H226 lung): > 100 µM | GI50 (KM12 colon): > 100 µM | TGI (KM12 colon): > 100 µM | GI50 (M19-MEL melanoma): > 100 µM | TGI (M19-MEL melanoma): > 100 µM | GI50 (XF 498 CNS): > 100 µM | TGI (XF 498 CNS): > 100 µM | GI50 (CCRF-CEM leukemia): > 100 µM | TGI (CCRF-CEM leukemia): > 100 µM | GI50 (UACC-257 melanoma): > 100 µM | TGI (UACC-257 melanoma): > 100 µM | GI50 (HOP-18 NSCLC): > 100 µM | TGI (HOP-18 NSCLC): > 100 µM | GI50 (M14 melanoma): > 100 µM | TGI (M14 melanoma): > 100 µM | GI50 (DMS 273 small cell lung): > 100 µM | TGI (DMS 273 small cell lung): > 100 µM | GI50 (NCI-H23 lung): > 100 µM | TGI (NCI-H23 lung): > 100 µM | GI50 (TK-10 renal): > 100 µM | TGI (TK-10 renal): > 100 µM | GI50 (ACHN renal): > 100 µM | TGI (ACHN renal): > 100 µM | GI50 (HOP-92 NSCLC): > 100 µM | TGI (HOP-92 NSCLC): > 100 µM | GI50 (OVCAR-4 ovarian): > 100 µM | TGI (OVCAR-4 ovarian): > 100 µM | GI50 (COLO 205 colon): > 100 µM | TGI (COLO 205 colon): > 100 µM | GI50 (MALME-3M melanoma): > 100 µM | TGI (MALME-3M melanoma): > 100 µM | GI50 (OVCAR-5 ovarian): > 100 µM | TGI (OVCAR-5 ovarian): > 100 µM | GI50 (SF-539 CNS): > 100 µM | TGI (SF-539 CNS): > 100 µM | GI50 (786-0 renal): > 100 µM | TGI (786-0 renal): > 100 µM | GI50 (HT29 colon): > 100 µM | TGI (HT29 colon): > 100 µM | GI50 (RPMI-8226 leukemia): > 100 µM | TGI (RPMI-8226 leukemia): > 100 µM | GI50 (SNB-78 CNS): > 100 µM | TGI (SNB-78 CNS): > 100 µM | GI50 (MOLT-4 leukemia): > 100 µM | TGI (MOLT-4 leukemia): > 100 µM | GI50 (DLD-1 colon): > 100 µM | TGI (DLD-1 colon): > 100 µM | GI50 (U251 CNS): > 100 µM | TGI (U251 CNS): > 100 µM | GI50 (SK-OV-3 ovarian): > 100 µM | TGI (SK-OV-3 ovarian): > 100 µM | GI50 (UO-31 renal): > 100 µM | TGI (UO-31 renal): > 100 µM | GI50 (EKVX NSCLC): > 100 µM | TGI (EKVX NSCLC): > 100 µM | GI50 (HL-60(TB) leukemia): > 100 µM | TGI (HL-60(TB) leukemia): > 100 µM | GI50 (SNB-75 CNS): > 100 µM | TGI (SNB-75 CNS): > 100 µM | GI50 (OVCAR-8 ovarian): > 100 µM | TGI (OVCAR-8 ovarian): > 100 µM | GI50 (LXFL 529 NSCLC): > 100 µM | TGI (LXFL 529 NSCLC): > 100 µM | GI50 (SK-MEL-28 melanoma): > 100 µM | TGI (SK-MEL-28 melanoma): > 100 µM | GI50 (SK-MEL-5 melanoma): > 100 µM | TGI (SK-MEL-5 melanoma): > 100 µM | GI50 (OVCAR-3 ovarian): > 100 µM | TGI (OVCAR-3 ovarian): > 100 µM | GI50 (HCT-15 colon): > 100 µM | TGI (HCT-15 colon): > 100 µM | GI50 (NCI-H460 lung): > 100 µM | TGI (NCI-H460 lung): > 100 µM | GI50 (A549 NSCLC): > 100 µM | TGI (A549 NSCLC): > 100 µM | GI50 (SK-MEL-2 melanoma): > 100 µM | TGI (SK-MEL-2 melanoma): > 100 µM | GI50 (HCT-116 colon): > 100 µM | TGI (HCT-116 colon): > 100 µM | GI50 (SN12C renal): > 100 µM | TGI (SN12C renal): > 100 µM

Reference: PubChem BioAssay (NCI)
